Experiments:
[1] = Stability in mouse liver microsomes assessed as parent compound remaining after 10 mins; assay type: ADME, Microsome; settings: liver microsomes, read-out: Stability
[2] = Tmax in Balb/c mouse at 10 mg/kg, po; assay type: ADME, organism-based; settings: in vivo
[3] = Half life in rat liver microsomes; assay type: ADME, Microsome
Cytochrome P450 2C8 = target: T1, Cytochrome P450 2C8 (Homo sapiens, UniProt P10632); assay: Inhibition of CYP2C8 (unknown origin); assay type: ADME
T1 sequence (P10632 whole entry): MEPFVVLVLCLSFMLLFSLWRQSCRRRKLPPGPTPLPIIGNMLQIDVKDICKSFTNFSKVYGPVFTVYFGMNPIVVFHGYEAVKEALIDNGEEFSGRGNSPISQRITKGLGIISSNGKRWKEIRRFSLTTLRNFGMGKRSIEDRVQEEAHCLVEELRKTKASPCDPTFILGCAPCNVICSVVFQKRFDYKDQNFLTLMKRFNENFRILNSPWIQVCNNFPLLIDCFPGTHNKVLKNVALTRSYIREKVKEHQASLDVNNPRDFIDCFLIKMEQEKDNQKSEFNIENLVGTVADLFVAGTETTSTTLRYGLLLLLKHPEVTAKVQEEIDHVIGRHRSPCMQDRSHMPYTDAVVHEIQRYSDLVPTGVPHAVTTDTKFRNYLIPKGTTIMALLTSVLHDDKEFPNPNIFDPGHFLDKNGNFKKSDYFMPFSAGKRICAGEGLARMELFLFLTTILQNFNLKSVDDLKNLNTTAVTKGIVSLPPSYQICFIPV

[4] = Stability in human liver microsomes assessed as parent compound remaining after 10 mins; assay type: ADME, Microsome; settings: liver microsomes, read-out: Stability
Cytochrome P450 1A2 = target: T2, Cytochrome P450 1A2 (Homo sapiens, UniProt P05177); assay: Inhibition of CYP1A2 (unknown origin); assay type: ADME
T2 sequence (P05177 whole entry): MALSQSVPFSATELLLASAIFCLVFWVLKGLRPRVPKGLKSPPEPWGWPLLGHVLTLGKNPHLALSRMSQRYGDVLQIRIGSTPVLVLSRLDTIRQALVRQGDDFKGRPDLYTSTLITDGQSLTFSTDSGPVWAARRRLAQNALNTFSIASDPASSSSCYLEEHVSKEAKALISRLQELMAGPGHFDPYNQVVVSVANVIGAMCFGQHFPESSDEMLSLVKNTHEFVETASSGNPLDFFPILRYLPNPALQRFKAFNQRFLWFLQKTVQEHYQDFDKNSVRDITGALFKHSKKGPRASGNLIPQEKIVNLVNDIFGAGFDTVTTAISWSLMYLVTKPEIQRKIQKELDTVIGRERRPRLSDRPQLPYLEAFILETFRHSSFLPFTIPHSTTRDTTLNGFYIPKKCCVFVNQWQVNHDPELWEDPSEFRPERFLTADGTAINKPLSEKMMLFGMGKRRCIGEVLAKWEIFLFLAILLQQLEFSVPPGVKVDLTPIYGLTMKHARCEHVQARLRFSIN

Cytochrome P450 2D6 = Cytochrome P450 2D6 (Homo sapiens, UniProt P10635); assay: Inhibition of CYP2D6 (unknown origin); assay type: ADME
[5] = AUC in Balb/c mouse at 10 mg/kg, po; assay type: ADME, organism-based; settings: in vivo
[6] = Cmax in Balb/c mouse at 10 mg/kg, po; assay type: ADME, organism-based; design: dose 10 mg/kg, route oral; settings: in vivo
[7] = target: T3, Nuclear receptor ROR-beta (Homo sapiens, UniProt Q92753); assay: Inverse agonist activity at human Gal4-fused RORbeta LBD (200 to 559 residues) expressed in human Jurkat cells measured after 18 hrs by steady-glo luciferase reporter gene assay; assay type: cell-based
T3 sequence (Q92753 whole entry): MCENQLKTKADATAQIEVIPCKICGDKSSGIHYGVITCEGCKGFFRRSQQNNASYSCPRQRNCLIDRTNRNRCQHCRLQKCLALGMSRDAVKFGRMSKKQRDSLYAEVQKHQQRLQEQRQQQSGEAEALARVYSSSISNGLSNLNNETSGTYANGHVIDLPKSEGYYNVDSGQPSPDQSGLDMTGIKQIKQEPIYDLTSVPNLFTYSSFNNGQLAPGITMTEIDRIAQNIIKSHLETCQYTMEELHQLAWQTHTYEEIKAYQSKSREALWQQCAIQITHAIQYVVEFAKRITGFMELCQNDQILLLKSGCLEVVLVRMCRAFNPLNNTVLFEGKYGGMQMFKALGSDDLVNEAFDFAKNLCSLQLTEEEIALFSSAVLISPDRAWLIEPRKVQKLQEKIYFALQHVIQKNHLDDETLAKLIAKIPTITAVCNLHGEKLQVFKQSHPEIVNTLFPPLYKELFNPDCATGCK

[8] = Half life in mouse liver microsomes; assay type: ADME, Microsome
[9] = Half life in human liver microsomes; assay type: ADME, Microsome
Cytochrome P450 2B6 = target: T4, Cytochrome P450 2B6 (Homo sapiens, UniProt P20813); assay: Inhibition of CYP2B6 (unknown origin); assay type: ADME
T4 sequence (P20813 whole entry): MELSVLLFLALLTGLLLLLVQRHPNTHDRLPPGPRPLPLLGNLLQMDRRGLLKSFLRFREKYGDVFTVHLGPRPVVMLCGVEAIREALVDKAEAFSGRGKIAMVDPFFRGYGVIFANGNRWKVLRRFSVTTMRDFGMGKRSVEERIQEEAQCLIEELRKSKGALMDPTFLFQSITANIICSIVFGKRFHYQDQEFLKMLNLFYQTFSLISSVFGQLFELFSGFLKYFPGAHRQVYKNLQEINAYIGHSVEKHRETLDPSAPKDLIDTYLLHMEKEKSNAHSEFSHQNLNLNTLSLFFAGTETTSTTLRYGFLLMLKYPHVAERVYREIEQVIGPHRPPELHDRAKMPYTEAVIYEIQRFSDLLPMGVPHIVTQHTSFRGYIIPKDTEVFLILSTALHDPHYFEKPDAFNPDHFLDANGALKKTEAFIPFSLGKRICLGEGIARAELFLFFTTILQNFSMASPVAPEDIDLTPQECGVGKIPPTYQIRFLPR

[10] = target: T5, Nuclear receptor subfamily 1 group I member 2 (Homo sapiens, UniProt O75469); assay: Transactivation of PXR (unknown origin) expressed in human HepG2 cells; assay type: cell-based
T5 sequence (O75469 whole entry): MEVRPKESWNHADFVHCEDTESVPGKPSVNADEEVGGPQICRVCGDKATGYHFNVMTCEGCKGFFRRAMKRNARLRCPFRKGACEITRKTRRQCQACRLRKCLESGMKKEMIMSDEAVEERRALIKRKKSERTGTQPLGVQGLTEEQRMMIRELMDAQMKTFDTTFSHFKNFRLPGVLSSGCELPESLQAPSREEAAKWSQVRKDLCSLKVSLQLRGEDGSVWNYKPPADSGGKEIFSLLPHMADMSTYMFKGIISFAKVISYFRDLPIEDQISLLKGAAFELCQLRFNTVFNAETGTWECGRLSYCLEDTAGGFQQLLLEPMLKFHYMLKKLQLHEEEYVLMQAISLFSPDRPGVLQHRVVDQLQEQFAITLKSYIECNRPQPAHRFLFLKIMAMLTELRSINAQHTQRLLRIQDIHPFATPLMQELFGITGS

Cytochrome P450 2C9 = Cytochrome P450 2C9 (Homo sapiens, UniProt P11712); assay: Inhibition of CYP2C9 (unknown origin); assay type: ADME
Cytochrome P450 3A4 = Cytochrome P450 3A4 (Homo sapiens, UniProt P08684); assay: Inhibition of CYP3A4 (unknown origin); assay type: ADME
Cytochrome P450 3A4, sequence (P08684 whole entry): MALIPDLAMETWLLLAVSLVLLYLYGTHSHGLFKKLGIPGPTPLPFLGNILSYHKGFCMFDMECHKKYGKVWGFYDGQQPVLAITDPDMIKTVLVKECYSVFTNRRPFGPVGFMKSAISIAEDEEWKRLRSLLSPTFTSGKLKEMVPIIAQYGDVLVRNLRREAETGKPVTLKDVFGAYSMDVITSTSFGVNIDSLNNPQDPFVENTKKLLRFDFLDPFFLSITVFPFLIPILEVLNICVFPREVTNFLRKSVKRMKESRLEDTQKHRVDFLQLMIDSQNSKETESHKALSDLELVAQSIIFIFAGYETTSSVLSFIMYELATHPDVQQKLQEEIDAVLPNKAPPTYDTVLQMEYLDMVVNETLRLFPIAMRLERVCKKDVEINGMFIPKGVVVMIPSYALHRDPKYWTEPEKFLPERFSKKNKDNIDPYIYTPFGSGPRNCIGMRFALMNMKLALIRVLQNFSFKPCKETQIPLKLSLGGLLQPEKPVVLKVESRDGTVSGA

Cytochrome P450 2C9, sequence (P11712 whole entry): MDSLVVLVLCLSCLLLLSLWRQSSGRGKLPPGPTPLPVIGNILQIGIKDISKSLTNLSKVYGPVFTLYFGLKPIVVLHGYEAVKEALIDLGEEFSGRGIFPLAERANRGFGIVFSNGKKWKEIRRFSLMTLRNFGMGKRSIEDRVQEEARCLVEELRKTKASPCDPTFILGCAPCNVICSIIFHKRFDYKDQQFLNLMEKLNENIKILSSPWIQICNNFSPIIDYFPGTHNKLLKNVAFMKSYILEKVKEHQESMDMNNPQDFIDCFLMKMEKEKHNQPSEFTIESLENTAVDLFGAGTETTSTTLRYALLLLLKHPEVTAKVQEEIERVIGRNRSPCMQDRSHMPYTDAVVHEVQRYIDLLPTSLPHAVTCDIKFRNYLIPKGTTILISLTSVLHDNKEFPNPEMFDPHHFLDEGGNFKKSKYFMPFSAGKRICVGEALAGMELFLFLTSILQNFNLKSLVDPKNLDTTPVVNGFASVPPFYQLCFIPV
Cytochrome P450 2D6, sequence (P10635 whole entry): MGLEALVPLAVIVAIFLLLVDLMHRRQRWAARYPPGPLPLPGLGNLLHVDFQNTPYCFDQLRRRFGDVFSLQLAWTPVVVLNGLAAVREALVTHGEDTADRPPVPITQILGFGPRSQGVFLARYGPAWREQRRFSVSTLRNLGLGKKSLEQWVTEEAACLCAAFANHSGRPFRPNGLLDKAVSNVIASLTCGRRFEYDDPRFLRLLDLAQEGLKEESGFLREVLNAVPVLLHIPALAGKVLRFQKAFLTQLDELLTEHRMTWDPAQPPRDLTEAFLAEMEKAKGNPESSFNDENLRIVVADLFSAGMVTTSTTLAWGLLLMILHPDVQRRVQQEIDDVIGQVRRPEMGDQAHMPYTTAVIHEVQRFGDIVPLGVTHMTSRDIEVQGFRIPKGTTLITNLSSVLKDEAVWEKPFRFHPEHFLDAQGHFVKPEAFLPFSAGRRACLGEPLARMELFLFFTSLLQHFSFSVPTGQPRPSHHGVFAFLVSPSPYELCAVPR

remaining at 10 min [1]	Tmax [2]	half-life [3]	IC50 (Cytochrome P450 2C8)	remaining at 10 min [4]	IC50 (Cytochrome P450 1A2)	IC50 (Cytochrome P450 2D6)	AUC [5]	Cmax [6]	EC50 [7]	half-life [8]	half-life [9]	IC50 (Cytochrome P450 2B6)	EC50 [10]	IC50 (Cytochrome P450 2C9)	IC50 (Cytochrome P450 3A4)	Structure (SMILES)
83%	0.5 h	> 2 h	> 10 µM	89%	> 10 µM	> 10 µM	16.6 µM·h	3.7 µM	> 40 µM	> 2 h	> 2 h	> 10 µM	> 50 µM	> 10 µM	> 10 µM	CC[C@]1(C(=O)N2CC[C@](c3ccc(C(F)(C(F)(F)F)C(F)(F)F)cc3)(S(=O)(=O)c3ccc(F)cc3)C2)CC[C@H](C(=O)O)CC1
73%	1 h	> 2 h	> 10 µM	100%	> 10 µM	> 10 µM	24 µM·h	6.7 µM	> 40 µM	> 2 h	> 2 h	> 10 µM	> 50 µM	> 10 µM	> 10 µM	O=C(O)C12CCC(C(=O)N3CC[C@](c4ccc(C(F)(C(F)(F)F)C(F)(F)F)cc4)(S(=O)(=O)c4ccc(F)cc4)C3)(CC1)CC2
